Measurements as given in ChEMBL document CHEMBL3045494, “Inhibitory effect and structureactivity relationship of some Biginelli-type pyrimidines against HSV-1” (Med Chem Res, 2013).
The source made the active and inactive calls.

How the values were obtained:
[1] = Selectivity index, ratio of CC25 for African green monkey Vero cells to IC25 for Herpes simplex virus 1 KOS; assay type: toxicity, cell-based; conditions: read-out: Selectivity Index
[2] = Therapeutic index, ratio of CC50 for African green monkey Vero cells to IC50 for Herpes simplex virus 1 KOS; assay type: cell-based; conditions: read-out: Ratio CC50/IC50
Vero = assay: (§1) Cytotoxicity against Chlorocebus aethiops (African green monkey) Vero cells after 72 hr by XTT assay; assay type: cell-based; conditions: chlorocebus sabaeus, vero, 72 h
Human alphaherpesvirus 1 = assay: Antiviral activity against Human herpesvirus 1 strain KOS infected Vero cells after 72 hr by plaque reduction assay; assay type: functional, organism-based
[3] = as §1; assay type: cell-based; conditions: chlorocebus sabaeus, Vero cells
[4] = Human alphaherpesvirus 1, KOS, Vero, 72 h
[5] = Human alphaherpesvirus 1, KOS, Vero, 72 h, read-out: IC50

Row | Compound | IC50 (Human alphaherpesvirus 1; vero) | IC50 (Human alphaherpesvirus 1; [5]) [µM] | selectivity ratio [1] | selectivity ratio [2] | CC25 (Vero) | CC50 (Vero) | IC25 (Human alphaherpesvirus 1) | CC50 at 72 h [3] [µM] | IC25 (Human alphaherpesvirus 1; [4]) [µM]
1 | CCOC(=O)C1=C(C)NC(=O)NC1c1ccc(Br)cc1 (stereo not given) | – | – | – | – | 67.5 µM | – | – | – | –
2 | CC1=C(C(=O)Nc2ccc(Cl)cc2)C(c2cnc(CS)n2Nc2ccccc2)NC(=O)N1 (stereo not given) | – | > 100 | 1.4 | > 1 | 53.9 µM | – | – | > 100 | 37
3 | CC1=C(C(=O)Nc2ccccc2Cl)C(c2ccc(Br)cc2)NC(=O)N1 (stereo not given) | – | 32.7 | 936 | > 3 | 84.3 µM | – | – | > 100 | 0.09
4 | CC1=C(C(=O)Nc2ccccc2Cl)C(c2ccccc2Br)NC(=O)N1 (stereo not given) | – | 59.8 | 4.2 | > 1.6 | 58.8 µM | – | – | > 100 | 13.9
5 | CCOC(=O)C1=C(C)N=C(S)NC1c1cccs1 (stereo not given) | – | > 100 | 6.2 | – | 87.3 µM | – | – | 100 | 14
6 | CC1=C(C(=O)Nc2cccc(Cl)c2)C(c2cnc(CS)n2Nc2ccccc2)NC(=O)N1 (stereo not given) | – | > 100 | 5.1 | < 0.9 | 71.1 µM | – | – | 98.6 | 13.7
7 | CC1=C(C(=O)Nc2cccc(Cl)c2)C(c2cnc(CS)n2NCc2ccccc2)NC(=O)N1 (stereo not given) | – | 67 | 1.8 | > 1.4 | 100 µM | – | – | > 100 | 53.8
8 | CC1=C(C(=O)OC(C)C)C(c2cccs2)NC(S)=N1 (stereo not given) | – | 28 | 0.6 | 1.9 | 5.7 µM | – | – | 53.9 | 8.5
9 | CC1=C(C(=O)Nc2ccccc2Cl)C(c2ccc([N+](=O)[O-])cc2)NC(=O)N1 (stereo not given) | – | 81.9 | > 167 | > 1.2 | Non-toxic | Non-toxic | – | – | 0.6
10 | CC1=C(C(=O)Oc2ccccc2)C(c2ccccc2)NC(=O)N1 (stereo not given) | – | 89.7 | 9.4 | > 1.1 | 98 µM | – | – | > 100 | 10.4
11 | CC1=C(C(=O)Nc2ccccc2Cl)C(c2cnc(CS)n2Nc2ccccc2)NC(=O)N1 (stereo not given) | Not Active | – | < 1 | < 1 | 97.7 µM | – | inactive | > 100 | –
12 | COC(=O)C1=C(C)NC(=S)NC1c1cccs1 (stereo not given) | – | > 100 | > 1.1 | > 1 | Non-toxic | Non-toxic | – | – | 92.5
13 | CCOC(=O)C1=C(C)NC(=S)NC1c1ccc(Br)cc1 (stereo not given) | – | 122 | 0.1 | 0.31 | 9.3 µM | – | – | 38.9 | 87.3

Continued, in another order:

Row | IC50 (Human alphaherpesvirus 1; vero) | IC50 (Human alphaherpesvirus 1; [5]) [µM] | Compound | selectivity ratio [1] | selectivity ratio [2] | CC25 (Vero) | CC50 (Vero) | IC25 (Human alphaherpesvirus 1) | CC50 at 72 h [3] [µM] | IC25 (Human alphaherpesvirus 1; [4]) [µM]
14 | Not Active | – | CCOC(=O)C1=C(C)NC(=O)NC1c1cnc(CS)n1NCc1ccccc1 (stereo not given) | 1 | 1 | Non-toxic | Non-toxic | inactive | – | –
15 | – | 10.5 | CC1=C(C(=O)Nc2ccccc2Cl)C(c2ccc(C)cc2)NC(=O)N1 (stereo not given) | > 1250 | > 10 | > 100 µM | – | – | > 100 | 0.08
16 | Not Active | – | CCCC1NC(=O)NC(C)=C1C(=O)OCC (stereo not given) | 1 | 1 | Non-toxic | Non-toxic | inactive | – | –
17 | Not Active | – | COC(=O)C1=C(C)N(C)C(=O)NC1c1ccc(F)cc1 (stereo not given) | 1 | 1 | Non-toxic | Non-toxic | inactive | – | –
18 | – | > 100 | COc1cccc(C2NC(=O)NC(C)=C2C(=O)Nc2ccccc2Cl)c1 (stereo not given) | 5 | > 1 | 45.6 µM | – | – | > 100 | 9.1
19 | – | 81.5 | CC1=C(C(=O)Nc2ccccc2Cl)C(c2cccs2)NC(=O)N1 (stereo not given) | 3.9 | > 1.2 | 98.9 µM | – | – | > 100 | 25.2
20 | – | 1.8 | CC1=C(C(=O)OCC(C)C)C(c2cccs2)NC(S)=N1 (stereo not given) | 30.6 | 48.6 | 18.4 µM | – | – | 87.5 | 0.6
21 | – | > 100 | CC1=C(C(=O)Nc2ccccn2)C(c2cccs2)NC(=O)N1 (stereo not given) | > 1 | > 1 | > 100 µM | – | – | > 100 | 97.7
